This note sets out measurements from ChEMBL document CHEMBL1157031, “A novel copper complex of salicylaldehyde pyrazole hydrazone induces apoptosis through up-regulating integrin beta4 in H322 lung carcinoma cells” (Eur J Med Chem, 2010).

A short description of assay [1]: Cytotoxicity against human NCI-H322 cells after 48 hrs by MTT assay. The class given is functional, cell-based. As to conditions: NCI-H322, 48 h.
The subject of assay [2] is NCI-H1299. Briefly: Cytotoxicity against human NCI-H1299 cells after 48 hrs by MTT assay. It is filed as functional, cell-based. The note with it: NCI-H1299, 48 h. Background: Tetrazolium assays rely on reduction of a dye to a coloured formazan, in cell work by metabolically active cells.
In assay [3] the test system is HUVEC. In words: Cytotoxicity against HUVEC cells after 48 hrs by MTT assay. The note with it: Homo sapiens. It is filed as cell-based.
Assay [4] relates to NCI-H322. In words: Induction of apoptosis in human NCI-H322 cells at 10 uM by Hoechst 33258 staining in presence of CuCl2. The class given is functional, cell-based.

The source made the active and inactive calls. The rule behind the calls is not given here.

A word on the IC50: it is the midpoint of a concentration-inhibition curve. A high value points to weaker potency.

On to `CC(C)(C)c1ccc(Cn2nc(-c3ccccc3)cc2C(=O)N/N=C/c2ccccc2O)cc1`, for which the figures for the IC50 in assay [1], in assay [2] and in assay [3] were 4.75 µM, 5.78 µM and 2.23 µM, respectively. Also, the result in assay [4] was Active.
